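Exposure lasted 48 hours, with cells grown in 96-well plates and compounds tested at five concentrations. TGI: concentration producing complete growth inhibition.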
What was measured:
Experiment in all cases: growth of human tumour cells (NCI), 48 h
786-0 renal = tested on: 786-0 renal
A498 renal = tested on: A498 renal
A549 NSCLC = tested on: A549 NSCLC
ACHN renal = tested on: ACHN renal
CCRF-CEM leukemia = tested on: CCRF-CEM leukemia
COLO 205 colon = tested on: COLO 205 colon
DLD-1 colon = tested on: DLD-1 colon
DMS 114 small cell lung = tested on: DMS 114 small cell lung
DMS 273 small cell lung = tested on: DMS 273 small cell lung
EKVX NSCLC = tested on: EKVX NSCLC
HCC-2998 colon = tested on: HCC-2998 colon
HCT-116 colon = tested on: HCT-116 colon
HL-60(TB) leukemia = tested on: HL-60(TB) leukemia
HOP-62 NSCLC = tested on: HOP-62 NSCLC
HOP-92 NSCLC = tested on: HOP-92 NSCLC
HT29 colon = tested on: HT29 colon
IGROV1 ovarian = tested on: IGROV1 ovarian
K-562 leukemia = tested on: K-562 leukemia
KM12 colon = tested on: KM12 colon
KM20L2 colon = tested on: KM20L2 colon
LOX IMVI melanoma = tested on: LOX IMVI melanoma
LXFL 529 NSCLC = tested on: LXFL 529 NSCLC
M14 melanoma = tested on: M14 melanoma
M19-MEL melanoma = tested on: M19-MEL melanoma
MALME-3M melanoma = tested on: MALME-3M melanoma
MOLT-4 leukemia = tested on: MOLT-4 leukemia
NCI-H226 lung = tested on: NCI-H226 lung
NCI-H23 lung = tested on: NCI-H23 lung
NCI-H460 lung = tested on: NCI-H460 lung
NCI-H522 lung = tested on: NCI-H522 lung
OVCAR-3 ovarian = tested on: OVCAR-3 ovarian
OVCAR-5 ovarian = tested on: OVCAR-5 ovarian
OVCAR-8 ovarian = tested on: OVCAR-8 ovarian
RPMI-8226 leukemia = tested on: RPMI-8226 leukemia
RXF 393 renal = tested on: RXF 393 renal
SF-268 CNS = tested on: SF-268 CNS
SF-295 CNS = tested on: SF-295 CNS
SF-539 CNS = tested on: SF-539 CNS
SK-MEL-2 melanoma = tested on: SK-MEL-2 melanoma
SK-MEL-28 melanoma = tested on: SK-MEL-28 melanoma
SK-MEL-5 melanoma = tested on: SK-MEL-5 melanoma
SK-OV-3 ovarian = tested on: SK-OV-3 ovarian
SNB-75 CNS = tested on: SNB-75 CNS
SW-620 colon = tested on: SW-620 colon
TK-10 renal = tested on: TK-10 renal
U251 CNS = tested on: U251 CNS
UACC-257 melanoma = tested on: UACC-257 melanoma
UACC-62 melanoma = tested on: UACC-62 melanoma
UO-31 renal = tested on: UO-31 renal
XF 498 CNS = tested on: XF 498 CNS
CAKI-1 renal = tested on: CAKI-1 renal
HCT-15 colon = tested on: HCT-15 colon
HOP-18 NSCLC = tested on: HOP-18 NSCLC
OVCAR-4 ovarian = tested on: OVCAR-4 ovarian
SN12C renal = tested on: SN12C renal
SNB-78 CNS = tested on: SNB-78 CNS
SR leukemia = tested on: SR leukemia

Measured: TGI

CCCCN(CCCC)CC(C(=O)Nc1ccc([N+](=O)[O-])cc1[N+](=O)[O-])/C(C)=N\NC(=S)NN (stereo unspecified)
> 100 µM: 786-0 renal | A498 renal | A549 NSCLC | ACHN renal | CCRF-CEM leukemia | COLO 205 colon | DLD-1 colon | DMS 114 small cell lung | DMS 273 small cell lung | EKVX NSCLC | HCC-2998 colon | HCT-116 colon | HL-60(TB) leukemia | HOP-62 NSCLC | HOP-92 NSCLC | HT29 colon | IGROV1 ovarian | K-562 leukemia | KM12 colon | KM20L2 colon | LOX IMVI melanoma | LXFL 529 NSCLC | M14 melanoma | M19-MEL melanoma | MALME-3M melanoma | MOLT-4 leukemia | NCI-H226 lung | NCI-H23 lung | NCI-H460 lung | OVCAR-3 ovarian | OVCAR-5 ovarian | OVCAR-8 ovarian | RPMI-8226 leukemia | RXF 393 renal | SF-268 CNS | SF-295 CNS | SF-539 CNS | SK-MEL-2 melanoma | SK-MEL-28 melanoma | SK-MEL-5 melanoma | SK-OV-3 ovarian | SNB-75 CNS | SW-620 colon | TK-10 renal | U251 CNS | UACC-257 melanoma | UACC-62 melanoma | UO-31 renal | XF 498 CNS
65.4 µM: NCI-H522 lung

O=C1CCCC/C(=C/c2ccccc2)N1
> 100 µM: 786-0 renal | A498 renal | A549 NSCLC | ACHN renal | CAKI-1 renal | CCRF-CEM leukemia | COLO 205 colon | DLD-1 colon | DMS 114 small cell lung | DMS 273 small cell lung | EKVX NSCLC | HCC-2998 colon | HCT-116 colon | HCT-15 colon | HL-60(TB) leukemia | HOP-18 NSCLC | HOP-62 NSCLC | HOP-92 NSCLC | HT29 colon | IGROV1 ovarian | K-562 leukemia | KM12 colon | KM20L2 colon | LOX IMVI melanoma | LXFL 529 NSCLC | M14 melanoma | M19-MEL melanoma | MALME-3M melanoma | MOLT-4 leukemia | NCI-H226 lung | NCI-H23 lung | NCI-H460 lung | NCI-H522 lung | OVCAR-3 ovarian | OVCAR-4 ovarian | OVCAR-5 ovarian | OVCAR-8 ovarian | RPMI-8226 leukemia | RXF 393 renal | SF-268 CNS | SF-295 CNS | SF-539 CNS | SK-MEL-2 melanoma | SK-MEL-28 melanoma | SK-OV-3 ovarian | SN12C renal | SNB-75 CNS | SNB-78 CNS | SR leukemia | SW-620 colon | TK-10 renal | U251 CNS | UACC-257 melanoma | UACC-62 melanoma | UO-31 renal | XF 498 CNS

Source: PubChem BioAssay (NCI)
